Data published in patent US20170368082A1, “FORMULATIONS OF BRINCIDOFOVIR” (priority 2016, published 2017).
“And” between values parts separate entries of the source, which are not always exact repeats. Equal values may be shown once.

Test: Tissue distribution by quantitative whole-body autoradiography (QWBA)
Format: in vivo, male Sprague Dawley and Long-Evans rats
Conditions: for Concentration of radioactivity: SD rat
Description: The study utilized 4 groups of male SD rats (albino), and 3 groups of male LE rats (pigmented); a total of 39 rats. All animals were obtained from Hilltop Lab Animals, Inc. (Scottdale, Pa.). […] Rats in Group 5 were administered a single 2-h IV infusion of [^14C]brincidofovir at a target dose of 2 mg/kg. […] Three dosing formulations (one for high dose IV, one for low dose IV, and one for PO dose) were prepared at QPS on the day of dosing. The IV formulation for Groups 1, 2, 3, and 4 contained a vehicle of 10 mM sodium phosphate buffer in 5% dextrose solution at pH 8.0(±0.1).
Each animal, at their respective termination time points, was euthanized for QWBA analysis immediately after blood collection. One rat per time point per Group was euthanized as listed below.
The blood samples were maintained on wet ice (approximately 4° C.) and then centrifuged to obtain plasma within 1 h of the blood collection time. Centrifuge settings were recorded in the study notebook. Duplicate aliquots of plasma (0.050 mL) were analyzed for radioactivity using direct counting by LSC, and residual plasma was stored at approximately −70° C. and was saved for possible future analysis under a separate study protocol. Residual red blood cells were discarded as radioactive waste.
The pinna, distal limbs, hair, and tail were removed from each frozen carcass and each frozen carcass was embedded in an aqueous suspension of approximately 2% (w/v) carboxymethylcellulose and frozen into a block. The blocks were stored at approximately −20° C. prior to sectioning. Each blocked carcass was mounted on the object stage of a cryomicrotome (Leica CM3600 Cryomacrocut, Nussloch, Germany and Vibratome 9800, St. Louis, Mo.) maintained at approximately −20° C. and internal standards (3), which were plasma fortified with [^14C]-glucose at one concentration (approximately 0.05 μCi/mL), were placed into the frozen blocks, prior to sectioning, and were used for section thickness quality control. A number of whole-body sections (approximately 40 μm thick) were taken in the sagittal plane at various levels of interest using a whole-body cryomicrotome set at −20° C. Sagittal sections (20-50 μm thick) of frozen carcasses were exposed to phosphor imaging plates. Regions of images in tissues were converted to concentrations using standards. All of the major tissues, organs, and biological fluids were represented.
Tissue concentration data was determined for the following tissues and/or contents: adipose (brown and white), adrenal gland, bile (in duct), blood (cardiac), bone, bone marrow, brain (cerebrum, cerebellum, medulla), cecum (and contents), large intestine (and contents), epididymis, esophagus, eye (uvea and lens), Harderian gland, heart, kidney (cortex and medulla), liver, lung, lymph node, pancreas, pituitary gland, prostate gland, salivary gland, seminal vesicles, skeletal muscle, skin (pigmented and non-pigmented), small intestine (and contents), stomach (gastric mucosa and contents), spleen, spinal cord, testis, thymus, thyroid, and urinary bladder (and contents).
The imaging plate and sections were placed in light-tight exposure cassettes, in a copper-lined lead safe, for a 4-day exposure at room temperature. […] Quantification was performed by image densitometry using MCD image analysis software (v. 7.0, Interfocus Imaging Ltd) and a standard curve constructed from the integrated response [i.e., Molecular Dynamics Counts per square millimeter (MDC/mm^2)] and the nominal concentrations of the ^14C-calibration standards. The concentrations of radioactivity were expressed as the μg equivalents of [^14C]brincidofovir per gram sample (μg equiv/g). A lower limit of quantification (LLOQ) was applied to the data (See section 6.7.4).
Tissue concentrations that fell below the LLOQ were identified as being below the quantification limit (BQL). Tissue areas that were not visualized on autoradiographic images were identified as no sample (NS) and reported as BQL.

[1] = Group 6 SD albino rats, oral 15 mg/kg, c2 2 h, c3 24 h, c4 168 h, LLOQ 0.034

## CCCCCCCCCCCCCCCCOCCCOP(=O)(O)CO[C@H](CO)Cn1ccc(N)nc1=O [[^14C]brincidofovir]
15 mg/kg
  Bile Cmax, IV relative to oral: 14 times
  Small intestinal tissue concentration, IV relative to oral: approximately 1/10
  Small intestine Cmax, oral compared to IV: 6 fold
15 mg/kg 2-h IV
  Tissue t1/2: adrenal gland: 254 h
  Tissue t1/2: blood (cardiac): 14.2 h
  Tissue t1/2: bone marrow: 276 h
  Tissue t1/2: lymph node: 345 h
  Tissue t1/2: skin non-pigmented: 310 h
  Tissue t1/2: spleen: 378 h
15 mg/kg PO
  Tissue t1/2: adipose (brown): 234 h
  Tissue t1/2: esophagus: 37.2 h
  Tissue t1/2: lung: 93 h
  Tissue t1/2: pituitary gland: 106 h
  Tissue t1/2: small intestine: 98.1 h
  Tissue t1/2: spleen: 115 h
Adipose (brown), 2 h, 15 mg/kg IV
  Concentration of radioactivity: 2.088 μg equiv./g
Adipose (brown), 24 h, 15 mg/kg IV
  Concentration of radioactivity: 0.473 μg equiv./g
Adipose (brown), 168 h, 15 mg/kg IV
  Concentration of radioactivity: 0.391 μg equiv./g
Adipose (white), 2 h, 15 mg/kg IV
  Concentration of radioactivity: 0.386 μg equiv./g
Adipose (white), 24 h, 15 mg/kg IV
  Concentration of radioactivity: 0.135 μg equiv./g
Adipose (white), 168 h, 15 mg/kg IV
  Concentration of radioactivity: BQL (BQL = Value is below the LLOQ)
Adrenal Gland, 2 h, 15 mg/kg IV
  Concentration of radioactivity: 4.308 μg equiv./g
Adrenal Gland, 24 h, 15 mg/kg IV
  Concentration of radioactivity: 1.680 μg equiv./g
Adrenal Gland, 168 h, 15 mg/kg IV
  Concentration of radioactivity: 0.647 μg equiv./g
Bile (in duct), 24 h, 15 mg/kg IV
  Concentration of radioactivity: 1.469 μg equiv./g
Bile (in duct), 168 h, 15 mg/kg IV
  Concentration of radioactivity: 0.058 μg equiv./g
Blood (cardiac), 2 h, 15 mg/kg IV
  Concentration of radioactivity: 6.865 μg equiv./g
Blood (cardiac), 24 h, 15 mg/kg IV
  Concentration of radioactivity: 0.308 μg equiv./g
Blood (cardiac), 168 h, 15 mg/kg IV
  Concentration of radioactivity: BQL (BQL = Value is below the LLOQ)
Bone Marrow, 2 h, 15 mg/kg IV
  Concentration of radioactivity: 3.411 μg equiv./g
Bone Marrow, 24 h, 15 mg/kg IV
  Concentration of radioactivity: 1.219 μg equiv./g
Bone Marrow, 168 h, 15 mg/kg IV
  Concentration of radioactivity: 0.196 μg equiv./g
Bone, 2 h, 15 mg/kg IV
  Concentration of radioactivity: 0.449 μg equiv./g
Bone, 24 h, 15 mg/kg IV
  Concentration of radioactivity: 0.095 μg equiv./g
Bone, 168 h, 15 mg/kg IV
  Concentration of radioactivity: BQL (BQL = Value is below the LLOQ)
Brain (cerebellum), 2 h, 15 mg/kg IV
  Concentration of radioactivity: 0.907 μg equiv./g
Brain (cerebellum), 24 h, 15 mg/kg IV
  Concentration of radioactivity: 0.161 μg equiv./g
Brain (cerebellum), 168 h, 15 mg/kg IV
  Concentration of radioactivity: BQL (BQL = Value is below the LLOQ)
Brain (cerebrum), 2 h, 15 mg/kg IV
  Concentration of radioactivity: 0.803 μg equiv./g
Brain (cerebrum), 24 h, 15 mg/kg IV
  Concentration of radioactivity: 0.107 μg equiv./g
Brain (cerebrum), 168 h, 15 mg/kg IV
  Concentration of radioactivity: BQL (BQL = Value is below the LLOQ)
Brain (medulla), 2 h, 15 mg/kg IV
  Concentration of radioactivity: 0.864 μg equiv./g
Brain (medulla), 24 h, 15 mg/kg IV
  Concentration of radioactivity: 0.132 μg equiv./g
Brain (medulla), 168 h, 15 mg/kg IV
  Concentration of radioactivity: BQL (BQL = Value is below the LLOQ)
Cecum (contents), 2 h, 15 mg/kg IV
  Concentration of radioactivity: 0.085 μg equiv./g
Cecum (contents), 24 h, 15 mg/kg IV
  Concentration of radioactivity: 58.016 μg equiv./g
Cecum, 2 h, 15 mg/kg IV
  Concentration of radioactivity: 3.658 μg equiv./g
Cecum, 24 h, 15 mg/kg IV
  Concentration of radioactivity: 5.981 μg equiv./g
Cecum, 168 h, 15 mg/kg IV
  Concentration of radioactivity: 0.099 μg equiv./g
Epididymis, 2 h, 15 mg/kg IV
  Concentration of radioactivity: 2.391 μg equiv./g
Epididymis, 24 h, 15 mg/kg IV
  Concentration of radioactivity: 0.566 μg equiv./g
Epididymis, 168 h, 15 mg/kg IV
  Concentration of radioactivity: 0.234 μg equiv./g
G4 15 mg/kg IV, c3 2 h, c6 8 h, c9 24 h, c12 72 h
  Concentration, Seminal Vesicles: 1.374 μg equiv/g tissue and 1.834 μg equiv/g tissue and 1.717 μg equiv/g tissue and 1.127 μg equiv/g tissue
G5 2 mg/kg IV, c2 2 h, c5 8 h, c8 24 h, c11 72 h, LLOQ 0.005
  Concentration, Eye (lens): BQL
Group 3, 2 h
  Urinary bladder contents: 47.0 μg equiv/g
Group 3 SD, 15 mg/kg 2-h IV
  Concentration at Tmax: kidney cortex: 106.5 μg equiv/g
  Concentration at Tmax: kidney medulla: 33.4 μg equiv/g
  Concentration at Tmax: liver: 229.4 μg equiv/g
  Concentration at Tmax: small intestine: 43.7 μg equiv/g
  Concentration at Tmax: urinary bladder: 36.0 μg equiv/g
Group 3 SD, 15 mg/kg IV, 2 h
  Highest observed concentration in blood: 6.9 μg equiv/g
Group 4, 15 mg/kg IV
  Concentration in spleen at 840 h post-dose: 0.270 μg equiv/g
Group 4, 4 h
  Urinary bladder contents: 814.4 μg equiv/g
Group 4 LE, 15 mg/kg 2-h IV
  Concentration at Tmax: kidney cortex: 97.3 μg equiv/g
  Concentration at Tmax: kidney medulla: 27.0 μg equiv/g
  Concentration at Tmax: liver: 229.7 μg equiv/g
  Concentration at Tmax: small intestine: 71.0 μg equiv/g
  Concentration at Tmax: urinary bladder: 22.8 μg equiv/g
Group 4 LE, 15 mg/kg IV, 2 h
  Highest observed concentration in blood: 5.3 μg equiv/g
Group 5, 2 h
  Bile: 32.7 μg equiv/g
  Urinary bladder contents: 22.9 μg equiv/g
Group 5 LE, 2 mg/kg 2-h IV
  Concentration at Tmax: kidney cortex: 11.0 μg equiv/g
  Concentration at Tmax: kidney medulla: 3.4 μg equiv/g
  Concentration at Tmax: large intestine: 1.0 μg equiv/g
  Concentration at Tmax: liver: 34.2 μg equiv/g
  Concentration at Tmax: small intestine: 2.5 μg equiv/g
Group 5 LE, 2 mg/kg IV, 2 h
  Highest observed concentration in blood: 0.771 μg equiv/g
Group 6, 2 h
  Bile: 9.7 μg equiv/g
Group 6, 24 h
  Urinary bladder contents: 39.9 μg equiv/g
[1]
  Concentration of radioactivity, Brain (cerebrum): BQL
  Concentration of radioactivity, Brain (medulla): BQL
  Concentration of radioactivity, Eye (lens): BQL
  Concentration of radioactivity, Spinal Cord: BQL
Group 6 SD albino rats, oral 15 mg/kg, c2 2 h, c3 24 h, c4 168 h, LLOQ 0.034, 15 mg/kg
  Concentration of radioactivity, Epididymis: 0.073 μg equiv./g and 0.091 μg equiv./g and 0.075 μg equiv./g
Group 6 SD, 15 mg/kg PO
  Concentration at Tmax: cecum: 7.5 μg equiv/g
  Concentration at Tmax: kidney cortex: 18.4 μg equiv/g
